Reference: ChEMBL document CHEMBL2057188, “Hybridizing ability and nuclease resistance profile of backbone modified cationic phosphorothioate oligonucleotides” (Bioorg Med Chem, 2012)

Tests used:
Format in all cases: nucleic-acid assay
Nucleic Acid [1] = experiment: (§1) DNA hybridizing activity at single stranded RNA assessed as thermal stability of duplexes formed between compound and complimentary ssRNA by measuring melting temperature at 4 uM in presence of 10 mM pH 7.2 sodium phosphate buffer containing 100 mM NaCl by UV based melting experiment
Nucleic Acid [2] = experiment: as §1, with “measuring change in” for “measuring”, “experiment relative to untreated control” for “experiment”
Nucleic Acid [3] = experiment: (§2) DNA hybridizing activity at 22 bp double stranded DNA assessed as thermal stability of duplexes formed between compound and complimentary dsDNA by measuring change in melting temperature at 1.5 uM in presence of 7 mM pH 5.5 sodium phosphate buffer containing 140 mM K, 10 mM MgCl2 by UV based melting experiment
Nucleic Acid [4] = experiment: as §1, with “DNA” for “RNA”, “ssDNA” for “ssRNA”, “measuring change in” for “measuring”, “experiment relative to untreated control” for “experiment”
Nucleic Acid [5] = experiment: DNA hybridizing activity at single stranded DNA assessed as thermal stability of duplexes formed between compound and complimentary ssDNA by measuring melting temperature at 4 uM in presence of 10 mM pH 7.2 sodium phosphate buffer containing 100 mM NaCl by UV based melting experiment
Nucleic Acid [6] = experiment: as §2, with “measuring” for “measuring change in”

SMILES	Tm (Nucleic Acid [1]) [°C]	ΔTm (Nucleic Acid [2]) [°C]	ΔTm (Nucleic Acid [3]) [°C]	ΔTm (Nucleic Acid [4]) [°C]	Tm (Nucleic Acid [5]) [°C]	Tm (Nucleic Acid [6]) [°C]
Cc1cn([C@H]2C[C@H](OP(=O)(O)OC[C@H]3O[C@@H](n4cc(C)c(=O)[nH]c4=O)C[C@@H]3OP(=O)(O)OC[C@H]3O[C@@H](n4cc(C)c(=O)[nH]c4=O)C[C@@H]3O[P@@](=O)(OC[C@H]3O[C@@H](n4cc(C)c(=O)[nH]c4=O)C[C@@H]3OP(=O)(O)OC[C@H]3O[C@@H](n4cc(C)c(=O)[nH]c4=O)C[C@@H]3OP(=O)(O)OC[C@H]3O[C@@H](n4cc(C)c(=O)[nH]c4=O)C[C@@H]3OP(=O)(O)OC[C@H]3O[C@@H](n4ccc(N)nc4=O)C[C@@H]3OP(=O)(O)OC[C@H]3O[C@@H](n4ccc(N)nc4=O)C[C@@H]3OP(=O)(O)OC[C@H]3O[C@@H](n4ccc(N)nc4=O)C[C@@H]3OP(=O)(O)O)SCCCCN)[C@@H](COP(=O)(O)O[C@H]3C[C@H](n4ccc(N)nc4=O)O[C@@H]3COP(=O)(O)O[C@H]3C[C@H](n4ccc(N)nc4=O)O[C@@H]3COP(=O)(O)O[C@H]3C[C@H](n4ccc(N)nc4=O)O[C@@H]3CO)O2)c(=O)[nH]c1=O	45	-1	2	2	44	27
Cc1cn([C@H]2C[C@H](OP(=O)(O)OC[C@H]3O[C@@H](n4cc(C)c(=O)[nH]c4=O)C[C@@H]3OP(=O)(O)OC[C@H]3O[C@@H](n4cc(C)c(=O)[nH]c4=O)C[C@@H]3O[P@](=O)(OC[C@H]3O[C@@H](n4cc(C)c(=O)[nH]c4=O)C[C@@H]3OP(=O)(O)OC[C@H]3O[C@@H](n4cc(C)c(=O)[nH]c4=O)C[C@@H]3OP(=O)(O)OC[C@H]3O[C@@H](n4cc(C)c(=O)[nH]c4=O)C[C@@H]3OP(=O)(O)OC[C@H]3O[C@@H](n4ccc(N)nc4=O)C[C@@H]3OP(=O)(O)OC[C@H]3O[C@@H](n4ccc(N)nc4=O)C[C@@H]3OP(=O)(O)OC[C@H]3O[C@@H](n4ccc(N)nc4=O)C[C@@H]3OP(=O)(O)O)SCCCCCCN)[C@@H](COP(=O)(O)O[C@H]3C[C@H](n4ccc(N)nc4=O)O[C@@H]3COP(=O)(O)O[C@H]3C[C@H](n4ccc(N)nc4=O)O[C@@H]3COP(=O)(O)O[C@H]3C[C@H](n4ccc(N)nc4=O)O[C@@H]3CO)O2)c(=O)[nH]c1=O	41	-5	-3	-5	37	23
Cc1cn([C@H]2C[C@H](OP(=O)(O)OC[C@H]3O[C@@H](n4cc(C)c(=O)[nH]c4=O)C[C@@H]3OP(=O)(O)OC[C@H]3O[C@@H](n4cc(C)c(=O)[nH]c4=O)C[C@@H]3O[P@@](=O)(OC[C@H]3O[C@@H](n4cc(C)c(=O)[nH]c4=O)C[C@@H]3OP(=O)(O)OC[C@H]3O[C@@H](n4cc(C)c(=O)[nH]c4=O)C[C@@H]3OP(=O)(O)OC[C@H]3O[C@@H](n4cc(C)c(=O)[nH]c4=O)C[C@@H]3OP(=O)(O)OC[C@H]3O[C@@H](n4ccc(N)nc4=O)C[C@@H]3OP(=O)(O)OC[C@H]3O[C@@H](n4ccc(N)nc4=O)C[C@@H]3OP(=O)(O)OC[C@H]3O[C@@H](n4ccc(N)nc4=O)C[C@@H]3OP(=O)(O)O)SCCN3CCNCC3)[C@@H](COP(=O)(O)O[C@H]3C[C@H](n4ccc(N)nc4=O)O[C@@H]3COP(=O)(O)O[C@H]3C[C@H](n4ccc(N)nc4=O)O[C@@H]3COP(=O)(O)O[C@H]3C[C@H](n4ccc(N)nc4=O)O[C@@H]3CO)O2)c(=O)[nH]c1=O	46	0	3	3	45	28
Cc1cn([C@H]2C[C@H](OP(=O)(O)OC[C@H]3O[C@@H](n4cc(C)c(=O)[nH]c4=O)C[C@@H]3OP(=O)(O)OC[C@H]3O[C@@H](n4cc(C)c(=O)[nH]c4=O)C[C@@H]3O[P@@](=O)(OC[C@H]3O[C@@H](n4cc(C)c(=O)[nH]c4=O)C[C@@H]3OP(=O)(O)OC[C@H]3O[C@@H](n4cc(C)c(=O)[nH]c4=O)C[C@@H]3OP(=O)(O)OC[C@H]3O[C@@H](n4cc(C)c(=O)[nH]c4=O)C[C@@H]3OP(=O)(O)OC[C@H]3O[C@@H](n4ccc(N)nc4=O)C[C@@H]3OP(=O)(O)OC[C@H]3O[C@@H](n4ccc(N)nc4=O)C[C@@H]3OP(=O)(O)OC[C@H]3O[C@@H](n4ccc(N)nc4=O)C[C@@H]3OP(=O)(O)O)SCCN)[C@@H](COP(=O)(O)O[C@H]3C[C@H](n4ccc(N)nc4=O)O[C@@H]3COP(=O)(O)O[C@H]3C[C@H](n4ccc(N)nc4=O)O[C@@H]3COP(=O)(O)O[C@H]3C[C@H](n4ccc(N)nc4=O)O[C@@H]3CO)O2)c(=O)[nH]c1=O	45	-1	4	3	45	29
Cc1cn([C@H]2C[C@H](OP(=O)(O)OC[C@H]3O[C@@H](n4cc(C)c(=O)[nH]c4=O)C[C@@H]3OP(=O)(O)OC[C@H]3O[C@@H](n4cc(C)c(=O)[nH]c4=O)C[C@@H]3O[P@@](=O)(OC[C@H]3O[C@@H](n4cc(C)c(=O)[nH]c4=O)C[C@@H]3OP(=O)(O)OC[C@H]3O[C@@H](n4cc(C)c(=O)[nH]c4=O)C[C@@H]3OP(=O)(O)OC[C@H]3O[C@@H](n4cc(C)c(=O)[nH]c4=O)C[C@@H]3OP(=O)(O)OC[C@H]3O[C@@H](n4ccc(N)nc4=O)C[C@@H]3OP(=O)(O)OC[C@H]3O[C@@H](n4ccc(N)nc4=O)C[C@@H]3OP(=O)(O)OC[C@H]3O[C@@H](n4ccc(N)nc4=O)C[C@@H]3OP(=O)(O)O)SCCCN3CCNCC3)[C@@H](COP(=O)(O)O[C@H]3C[C@H](n4ccc(N)nc4=O)O[C@@H]3COP(=O)(O)O[C@H]3C[C@H](n4ccc(N)nc4=O)O[C@@H]3COP(=O)(O)O[C@H]3C[C@H](n4ccc(N)nc4=O)O[C@@H]3CO)O2)c(=O)[nH]c1=O	45	-1	2	3	45	27
Cc1cn([C@H]2C[C@H](OP(=O)(O)OC[C@H]3O[C@@H](n4cc(C)c(=O)[nH]c4=O)C[C@@H]3OP(=O)(O)OC[C@H]3O[C@@H](n4cc(C)c(=O)[nH]c4=O)C[C@@H]3O[P@@](=O)(OC[C@H]3O[C@@H](n4cc(C)c(=O)[nH]c4=O)C[C@@H]3OP(=O)(O)OC[C@H]3O[C@@H](n4cc(C)c(=O)[nH]c4=O)C[C@@H]3OP(=O)(O)OC[C@H]3O[C@@H](n4cc(C)c(=O)[nH]c4=O)C[C@@H]3OP(=O)(O)OC[C@H]3O[C@@H](n4ccc(N)nc4=O)C[C@@H]3OP(=O)(O)OC[C@H]3O[C@@H](n4ccc(N)nc4=O)C[C@@H]3OP(=O)(O)OC[C@H]3O[C@@H](n4ccc(N)nc4=O)C[C@@H]3OP(=O)(O)O)SCCNCCCN)[C@@H](COP(=O)(O)O[C@H]3C[C@H](n4ccc(N)nc4=O)O[C@@H]3COP(=O)(O)O[C@H]3C[C@H](n4ccc(N)nc4=O)O[C@@H]3COP(=O)(O)O[C@H]3C[C@H](n4ccc(N)nc4=O)O[C@@H]3CO)O2)c(=O)[nH]c1=O	46	0	6	3	45	31
